Values quoted from earlier work as cited in US7375097B2, “Increasing ATP availability by inhibition of creatine kinase (CK) leakage resulting from high-intensity exercise” (Aplodan Formulations Ltd., priority 2006, dated 2008).
Like-named read-outs stand apart in the source and are kept apart here.

Tests used:
[1] = in vivo
[2] = alkaline and acidic solutions
[3] = in vivo; remark: listed apart in the source
[4] = in vitro
[5] = oral administration, test animals, up to about, at 48 hours
[6] = tested on: models of myocardial infarction
[7] = tested on: serum CK levels increased by isoprenaline; details: rats; CK increased by administration of isoprenaline
[8] = tested on: leakage of CK in acute myocardial infarction; details: human patients suffering from acute myocardial infarction
[9] = tested on: patients with inadequate coronary blood flow
hand-grip strength = details: unaffected in the placebo group
[10] = tested on: skeletal muscle performance; details: clinical trials

**Q.** Which “tolerability / side effects” value [1] does the source give for `CN(CCOP(=O)(O)O)C(=N)N` [2-(carbamimidoyl-methyl-amino)ethoxyphosphonic acid] here?
**A.** Its value is “well tolerated and without side effects”.

**Q.** What about the stability in solution [2] of the same compound?
**A.** Its stability in solution is “stable in both alkaline and acidic solutions”.

**Q.** And the cardioprotection [3]?
**A.** The cardioprotection was “afford cardioprotection”.

**Q.** What about the dephosphorylation to creatine ([4]; blood and muscle) of the same compound?
**A.** Its dephosphorylation to creatine is “less so”.

**Q.** And the dephosphorylation to creatine ([4]; kidney, intestine and liver)?
**A.** Its dephosphorylation to creatine is “dephosphorylated to creatine to some degree”.

**Q.** And the “absorption by the intestine” value [5]?
**A.** The value was “about 60%”.

**Q.** And the “protection against cellular necrosis” value [6]?
**A.** Its value is “protective against cellular necrosis”.

**Q.** And the “serum CK levels” value [7]?
**A.** Its value is “reduce serum CK levels”.

**Q.** And the “leakage of CK and several other enzymes” value [8]?
**A.** The value was “reduce the leakage of CK as well as several other enzymes”.

**Q.** And the cardiac parameters [9]?
**A.** Its cardiac parameters is “improve cardiac parameters”.

**Q.** And the hand-grip strength (hand-grip strength)?
**A.** Its hand-grip strength is “hand-grip strength was improved”.

**Q.** And the “capacity to perform physical activity” value [10]?
**A.** The value was “increase the capacity to perform physical activity”.

**Q.** What about the muscular development [10] of the same compound?
**A.** The muscular development was “improve muscular development”.

**Q.** What about the muscular performance (elderly subjects) of the same compound?
**A.** The muscular performance was “improved muscular performance”.
